Test results from patent US8975417B2, “Pyrazolopyrrolidine derivatives and their use in the treatment of disease” (Novartis AG, priority 2013, dated 2015).

System: MV-4-11 cells
Assay: Cell growth inhibition assay (CellTiter-Glo), MV-4-11
Type: cell-based
Details: Homo sapiens, MV4-11, read-out: MV-4-11 TGI
How it was run: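 Compounds tested as 3-fold dilution series starting at 10 μM (DMSO 0.1% final); viability read by cellular ATP (CTG luminescence) at 37° C. Signal corrected for no-cell background and a day-0 plate, scaled −100% to 100%; four-parameter fitting gives IC50 and TGI.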

SMILES	IC (total growth inhibition) [µM]
CCc1nn(CCOC)c2c1C(c1ccc(Cl)cc1)N(c1cc(C)c3nnc(C)n3c1)C2=O (stereo not drawn) [Example 87, 4-(4-chlorophenyl)-5-(3,8-dimethyl-[1,2,4]triazolo[4,3-a]pyridin-6-yl)-3-ethyl-1-(2-methoxyethyl)-4,5-dihydropyrrolo[3,4-c]pyrazol-6(1H)-one]	0.0288
Cc1nn(C2CC2)c2c1C(c1ccc(Cl)cc1)N(c1cc(C)c3nnn(C)c3n1)C2=O (stereo not drawn) [Example 110, 4-(4-chlorophenyl)-1-cyclopropyl-5-(3,7-dimethyl-3H-[1,2,3]triazolo[4,5-b]pyridin-5-yl)-3-methyl-4,5-dihydropyrrolo[3,4-c]pyrazol-6(1H)-one]	0.0102
Cc1nn(C(=O)N(C)C)c2c1C(c1ccc(Cl)cc1)N(c1cc(C)c(=O)n(C)c1)C2=O (stereo not drawn) [Example 142, 4-(4-chlorophenyl)-5-(1,5-dimethyl-6-oxo-1,6-dihydropyridin-3-yl)-N,N,3-trimethyl-6-oxo-5,6-dihydropyrrolo[3,4-c]pyrazole-1(4H)-carboxamide]	0.121
COc1ncc(-n2nc3c(c2C(C)C)C(c2ccc(Cl)cc2)N(c2ccc4onc(C)c4c2)C3=O)c(OC)n1 (stereo not drawn) [Example 54, 4-(4-chlorophenyl)-2-(2,4-dimethoxypyrimidin-5-yl)-3-isopropyl-5-(3-methylbenzo-[d]isoxazol-5-yl)-4,5-dihydropyrrolo[3,4-c]pyrazol-6(2H)-one]	0.661
CNC(=O)n1nc(C)c2c1C(=O)N(c1cc(C)c(=O)n(C)c1)C2c1ccc(Cl)cc1 (stereo not drawn) [Example 143, 4-(4-chlorophenyl)-5-(1,5-dimethyl-6-oxo-1,6-dihydropyridin-3-yl)-N,3-dimethyl-6-oxo-5,6-dihydropyrrolo[3,4-c]pyrazole-1(4H)-carboxamide]	0.116
Cc1cc(N2C(=O)c3nn(C)c(O)c3C2c2ccc(Cl)cc2)cn(C)c1=O (stereo not drawn) [Example 73, 4-(4-chlorophenyl)-5-(1,5-dimethyl-6-oxo-1,6-dihydropyridin-3-yl)-3-hydroxy-2-methyl-4,5-dihydropyrrolo[3,4-c]pyrazol-6(2H)-one]	4.4
CCn1nc(C)c2c1C(=O)N(c1cc(C)c3nnc(C)n3c1)C2c1ccc(Cl)cc1 (stereo not drawn) [Example 116, 4-(4-chlorophenyl)-5-(3,8-dimethyl-[1,2,4]triazolo[4,3-a]pyridin-6-yl)-1-ethyl-3-methyl-4,5-dihydropyrrolo[3,4-c]pyrazol-6(1H)-one]	0.0301
Cc1nn(-c2ccnn2C)c2c1[C@@H](c1ccc(Cl)cc1)N(c1cc(C)c3nnc(C)n3c1)C2=O [Example 125, (R)-4-(4-chlorophenyl)-5-(3,8-dimethyl-[1,2,4]triazolo[4,3-a]pyridin-6-yl)-3-methyl-1-(1-methyl-1H-pyrazol-5-yl)-4,5-dihydropyrrolo[3,4-c]pyrazol-6(1H)-one]	0.0399
CCc1nn(C2CC2)c2c1C(c1ccc(Cl)cc1)N(c1cc(OC)c3nnc(C)n3c1)C2=O (stereo not drawn) [Example 84, 4-(4-chlorophenyl)-1-cyclopropyl-3-ethyl-5-(8-methoxy-3-methyl-[1,2,4]triazolo[4,3-a]pyridin-6-yl)-4,5-dihydropyrrolo[3,4-c]pyrazol-6(1H)-one]	0.098
Cc1cc(N2C(=O)c3nn(C4CN(C)C4)c(C)c3C2c2ccc(Cl)cc2)cn2c(C)nnc12 (stereo not drawn) [Example 158, 4-(4-chlorophenyl)-5-(3,8-dimethyl-[1,2,4]triazolo[4,3-a]pyridin-6-yl)-3-methyl-2-(1-methylazetidin-3-yl)-4,5-dihydropyrrolo[3,4-c]pyrazol-6(2H)-one]	0.045
CCc1nn(C)c2c1C(c1ccc(Cl)cc1)N(c1cc(OC)c3nnc(C)n3c1)C2=O (stereo not drawn) [Example 105, 4-(4-chlorophenol)-3-ethyl-5-(8-methoxy-3-methyl-[1,2,4]triazolo[4,3-a]pyridin-6-yl)-1-methyl-4,5-dihydropyrrolo[3,4-c]pyrazol-6(1H)-one]	0.164
CCc1nn(-c2ccnn2C)c2c1C(c1ccc(Cl)cc1)N(c1cc(C)c(=O)n(C)c1)C2=O (stereo not drawn) [Example 89, 4-(4-chlorophenyl)-5-(1,5-dimethyl-6-oxo-1,6-dihydropyridin-3-yl)-3-ethyl-1-(1-methyl-1H-pyrazol-5-yl)-4,5-dihydropyrrolo[3,4-c]pyrazol-6(1H)-one]	0.0673
COc1ncc(-n2nc(C)c3c2C(=O)N(c2cc(C)c(=O)n(C)c2)[C@H]3c2ccc(Cl)cc2)c(OC)n1 [Example 99, (S)-4-(4-chlorophenyl)-1-(2,4-dimethoxypyrimidin-5-yl)-5-(1,5-dimethyl-6-oxo-1,6-dihydropyridin-3-yl)-3-methyl-4,5-dihydropyrrolo[3,4-c]pyrazol-6(1H)-one]	4.31
Cc1nn(C2CN(C)C2)c2c1C(c1ccc(Cl)cc1)N(c1cc(C)c(=O)n(C)c1)C2=O (stereo not drawn) [Example 140, 4-(4-chlorophenyl)-5-(1,5-dimethyl-6-oxo-1,6-dihydropyridin-3-yl)-3-methyl-1-(1-methylazetidin-3-yl)-4,5-dihydropyrrolo[3,4-c]pyrazol-6(1H)-one]	0.154
Cc1ncccc1-n1nc2c(c1C)C(c1ccc(Cl)cc1)N(c1cc(C)c(=O)n(C)c1)C2=O (stereo not drawn) [Example 81, 4-(4-chlorophenyl)-5-(1,5-dimethyl-6-oxo-1,6-dihydropyridin-3-yl)-3-methyl-2-(2-methylpyridin-3-yl)-4,5-dihydropyrrolo[3,4-c]pyrazol-6(2H)-one]	0.13
COc1c2c(nn1C)C(=O)N(c1cc(C)c(=O)n(C)c1)C2c1ccc(Cl)cc1 (stereo not drawn) [Example 77, 4-(4-chlorophenyl)-5-(1,5-dimethyl-6-oxo-1,6-dihydropyridin-3-yl)-3-methoxy-2-methyl-4,5-dihydropyrrolo[3,4-c]pyrazol-6(2H)-one]	0.132
COc1ncccc1-n1nc(C)c2c1C(=O)N(c1cc(C)c(=O)n(C)c1)[C@@H]2c1ccc(Cl)cc1 [Example 128, (R)-4-(4-chlorophenyl)-5-(1,5-dimethyl-6-oxo-1,6-dihydropyridin-3-yl)-1-(2-methoxypyridin-3-yl)-3-methyl-4,5-dihydropyrrolo[3,4-c]pyrazol-6(1H)-one]	0.0734
Cc1cc(N2C(=O)c3c(c(C4CC4)nn3-c3ccnn3C)C2c2ccc(Cl)cc2)cn2c(C)nnc12 (stereo not drawn) [Example 117, 4-(4-chlorophenyl)-3-cyclopropyl-5-(3,8-dimethyl-[1,2,4]triazolo[4,3-a]pyridin-6-yl)-1-(1-methyl-1H-pyrazol-5-yl)-4,5-dihydropyrrolo[3,4-c]pyrazol-6(1H)-one]	0.0391
COCc1nn(C2CC2)c2c1C(c1ccc(Cl)cc1)N(c1cc(C)c3nnc(C)n3c1)C2=O (stereo not drawn) [Example 130, 4-(4-chlorophenyl)-1-cyclopropyl-5-(3,8-dimethyl-[1,2,4]triazolo[4,3-a]pyridin-6-yl)-3-(methoxymethyl)-4,5-dihydropyrrolo[3,4-c]pyrazol-6(1H)-one]	0.0267
CC(=O)N1CC(n2nc(C)c3c2C(=O)N(c2cc(C)c(=O)n(C)c2)C3c2ccc(Cl)cc2)C1 (stereo not drawn) [Example 153, 1-(1-acetylazetidin-3-yl)-4-(4-chlorophenyl)-5-(1,5-dimethyl-6-oxo-1,6-dihydropyridin-3-yl)-3-methyl-4,5-dihydropyrrolo[3,4-c]pyrazol-6(1H)-one]	0.161
CCc1nn(CCOCC(F)(F)F)c2c1C(c1ccc(Cl)cc1)N(c1cc(OC)c3nnc(C)n3c1)C2=O (stereo not drawn) [Example 108, 4-(4-chlorophenyl)-3-ethyl-5-(8-methoxy-3-methyl-[1,2,4]triazolo[4,3-a]pyridin-6-yl)-1-(2-(2,2,2-trifluoroethoxy)ethyl)-4,5-dihydropyrrolo[3,4-c]pyrazol-6(1H)-one]	0.445
Cc1nn(C(C)C)c2c1[C@@H](c1ccc(Cl)cc1)N(c1cc(C)c(=O)n(C)c1)C2=O [Example 104, (R)-4-(4-chlorophenyl)-5-(1,5-dimethyl-6-oxo-1,6-dihydropyridin-3-yl)-1-isopropyl-3-methyl-4,5-dihydropyrrolo[3,4-c]pyrazol-6(1H)-one]	0.0191
Cc1nn(C2CC2)c2c1[C@@H](c1ccc(Cl)cc1)N(c1cc(C)c3nnc(C)n3n1)C2=O [Example 122, (R)-4-(4-chlorophenyl)-1-cyclopropyl-5-(3,8-dimethyl-[1,2,4]triazolo[4,3-b]-pyridazin-6-yl)-3-methyl-4,5-dihydropyrrolo[3,4-c]pyrazol-6(1H)-one]	0.00842
Cc1nn(-c2ccnn2C)c2c1[C@@H](c1ccc(Cl)cc1)N(c1cc(C)c(=O)n(C)c1)C2=O [Example 120, (R)-4-(4-chlorophenyl)-5-(1,5-dimethyl-6-oxo-1,6-dihydropyridin-3-yl)-3-methyl-1-(1-methyl-1H-pyrazol-5-yl)-4,5-dihydropyrrolo[3,4-c]pyrazol-6(1H)-one]	0.106
Cc1nn(-c2ccnn2C)c2c1C(c1ccc(Cl)cc1)N(c1cc(C)c3nnc(C)n3n1)C2=O (stereo not drawn) [Example 114, 4-(4-chlorophenyl)-5-(3,8-dimethyl-[1,2,4]triazolo[4,3-b]pyridazin-6-yl)-3-methyl-1-(1-methyl-1H-pyrazol-5-yl)-4,5-dihydropyrrolo[3,4-c]pyrazol-6(1H)-one]	0.0443
Cc1nn(-c2ccnn2C)c2c1[C@H](c1ccc(Cl)cc1)N(c1cc(C)c(=O)n(C)c1)C2=O [Example 121, (S)-4-(4-chlorophenyl)-5-(1,5-dimethyl-6-oxo-1,6-dihydropyridin-3-yl)-3-methyl-1-(1-methyl-1H-pyrazol-5-yl)-4,5-dihydropyrrolo[3,4-c]pyrazol-6(1H)-one]	1.23
Cc1nn(C2CNC2)c2c1C(c1ccc(Cl)cc1)N(c1cc(C)c3nnc(C)n3c1)C2=O (stereo not drawn) [Example 151, 1-(azetidin-3-yl)-4-(4-chlorophenyl)-5-(3,8-dimethyl-[1,2,4]triazolo[4,3-a]pyridin-6-yl)-3-methyl-4,5-dihydropyrrolo[3,4-c]pyrazol-6(1H)-one]	0.368
